Results on eight compounds are retold here after patent US10294202B2, “Pyrrolidinones as herbicides” (FMC Corporation, priority 2013, dated 2019).

What all share (assay): Test A pre-/postemergence herbicide test
Experiment [1] has as its system wheat. It counts as in vivo, Triticum aestivum. From the text: (§1) Seeds of plant species selected from bamyardgrass (Echinochloa crus-galli), kochia (Kochia scoparia), ragweed (common ragweed, Ambrosia elatior), ryegrass, Italian (Italian ryegrass, Lolium multiflorum), crabgrass, large (large crabgrass Digitaria sanguinalis), giant foxtail (Setaria faberii), morningglory (Ipomoea spp.), pigweed (Amaranthus retroflexus), velvetleaf (Abutilon theophrasti), wheat (Triticum aestivum), and corn (Zea mays) were planted into a blend of loam soil and sand and treated preemergence with a directed soil spray using test chemicals formulated in a non-phytotoxic solvent mixture which included a surfactant. At the same time, plants selected from these crop and weed species and also blackgrass (Alopecurus myosuroides), and galium (catchweed bedstraw, Galium aparine) were planted in pots containing the same blend of loam soil and sand and treated with postemergence applications of test chemicals formulated in the same manner. Plants ranged in height from 2 to 10 cm and were in the one- to two-leaf stage for the postemergence treatment. Treated plants and untreated controls were maintained in a greenhouse for approximately 10 days, after which time all treated plants were compared to untreated controls and visually evaluated for injury. Plant response ratings, summarized in Table A, are based on a 0 to 100 scale where 0 is no effect and 100 is complete control. A dash (-) response means no test result.

Experiment [2] concerns velvetleaf. Format: in vivo, Abutilon theophrasti.
From the text: as §1

For experiment [3], the system named is barnyardgrass. It counts as in vivo, Echinochloa crus-galli.
From the text: as §1

Experiment [4] has as its system giant foxtail. Format: in vivo, Setaria faberii.
From the text: as §1

Experiment [5] concerns pigweed. Format: in vivo, Amaranthus retroflexus.
From the text: as §1

Experiment [6] has as its system morningglory. It counts as in vivo, Ipomoea spp.
From the text: as §1

The subject of experiment [7] is corn. Format: in vivo, Zea mays.
From the text: as §1

In experiment [8] the test system is crabgrass, large. Format: in vivo, Digitaria sanguinalis.
From the text: as §1

[9] abbreviates: Postemergence, 125 g ai/ha, 0 to 100 scale, 0 no effect, 100 complete control.
Where [10] appears, read: Postemergence, 500 g ai/ha, 0 to 100 scale (0 no effect, 100 complete control).
[11] abbreviates: Preemergence, 125 g ai/ha, visual rating on 0 to 100 scale (0 no effect, 100 complete control).
[12] abbreviates: preemergence, 500 g ai/ha, 0 to 100 scale.
[13] abbreviates: Postemergence, 1000 g ai/ha, 0 to 100 scale (0 no effect, 100 complete control).
Setting [14] is: Preemergence, 1000 g ai/ha, visual rating on 0 to 100 scale (0 no effect, 100 complete control), approx. 10 days.
The mark [15] stands for this setting: preemergence, 1000 g ai/ha, 0 to 100 scale.
Setting [16] is: preemergence, 1000 g ai/ha, 0 to 100 scale (0 no effect, 100 complete control).

In the case of `N#Cc1ccccc1NC(=O)C1C(=O)NCC1c1ccccc1` (racemic) [Compound 86], the “Plant response rating, Wheat” value in experiment [1] (setting [9]), in experiment [1] (setting [10]) and in experiment [1] (setting [12]) was 0 throughout. In experiment [1] (setting [11]), the “Wheat plant response rating” value came out at 0. The “Plant response rating, Velvetleaf” value in experiment [2] (setting [9]), in experiment [2] (setting [10]) and in experiment [2] (setting [12]) was 0 in each case. Further, in experiment [2] (setting [11]), the “Velvetleaf plant response rating” value came out at 0. The “Plant response rating, Barnyardgrass” value worked out at 0 in experiment [3] (setting [9]); 20 in experiment [3] (setting [10]); 40 in experiment [3] (preemergence, 500 g ai/ha, 0 to 100 scale (0 no effect, 100 complete control)). In addition, the “Barnyardgrass plant response rating” value in experiment [3] (setting [11]) worked out at 0. Moreover, the “Plant response rating, Foxtail, Giant” value was found to be 0 in experiment [4] (setting [9]), 10 in experiment [4] (setting [10]) and 60 in experiment [4] (setting [12]). The “Foxtail, Giant plant response rating” value in experiment [4] (setting [11]) is 20. For the same compound, the “Plant response rating, Pigweed” value in experiment [5] (setting [9]), in experiment [5] (setting [10]) and in experiment [5] (setting [12]) was 0 each time. Besides, the “Pigweed plant response rating” value in experiment [5] (setting [11]) is 0. In addition, the “Plant response rating, Morningglory” value in experiment [6] (setting [9]), in experiment [6] (setting [10]) and in experiment [6] (setting [12]) was 0 in each case. Moreover, the “Morningglory plant response rating” value in experiment [6] (setting [11]) came out at 0. Further, the “Plant response rating, Corn” value is recorded as 0 in experiment [7] (setting [9]), 0 in experiment [7] (setting [10]) and 20 in experiment [7] (setting [12]). Besides, the “Corn plant response rating” value in experiment [7] (setting [11]) was 0. The “Plant response rating, Crabgrass, Large” value in experiment [8] (setting [9]) was found to be 0; in experiment [8] (setting [10]) it was 60; in experiment [8] (setting [12]), 80. The “Crabgrass, Large plant response rating” value in experiment [8] (setting [11]) was 60.

`O=C1NCC(c2ccc(F)c(F)c2)C1C(=O)Nc1cccc(=O)[nH]1` (racemic) [Compound 96]: the “Plant response rating, Wheat” value in experiment [1] (setting [13]) and in experiment [1] (setting [14]) was 0 throughout. The “Plant response rating, Velvetleaf” value in experiment [2] (setting [13]) and in experiment [2] (setting [14]) was 0 in each case. In addition, the “Plant response rating, Barnyardgrass” value in experiment [3] (setting [13]) and in experiment [3] (setting [14]) was 0 each time. Moreover, the “Plant response rating, Foxtail, Giant” value in experiment [4] (setting [13]) and in experiment [4] (setting [14]) was 0 in each case. The “Plant response rating, Pigweed” value in experiment [5] (setting [13]) and in experiment [5] (setting [14]) was 0 throughout. Besides, the “Plant response rating, Morningglory” value in experiment [6] (setting [13]) and in experiment [6] (setting [14]) was 0 throughout. In addition, the “Plant response rating, Corn” value in experiment [7] (setting [13]) and in experiment [7] (setting [14]) was 0 throughout. For the same compound, the “Plant response rating, Crabgrass, Large” value in experiment [8] (setting [13]) and in experiment [8] (setting [14]) was 0 throughout.

As to `Cn1ccc(C2CNC(=O)C2C(=O)Nc2ccccc2C(F)(F)F)n1` (racemic) [Compound 191], the “Plant response rating, Wheat” value in experiment [1] (setting [13]) and in experiment [1] (setting [15]) was 0 each time. Further, the “Plant response rating, Velvetleaf” value in experiment [2] (setting [13]) and in experiment [2] (setting [15]) was 0 each time. The “Plant response rating, Barnyardgrass” value in experiment [3] (setting [13]) and in experiment [3] (setting [16]) was 0 each time. Besides, the “Plant response rating, Foxtail, Giant” value in experiment [4] (setting [13]) and in experiment [4] (setting [15]) was 0 in each case. Further, the “Plant response rating, Pigweed” value in experiment [5] (setting [13]) and in experiment [5] (setting [15]) was 0 in each case. Also, the “Plant response rating, Morningglory” value in experiment [6] (setting [13]) and in experiment [6] (setting [15]) was 0 throughout. For the same compound, the “Plant response rating, Corn” value in experiment [7] (setting [13]) and in experiment [7] (setting [15]) was 0 throughout. Besides, the “Plant response rating, Crabgrass, Large” value in experiment [8] (setting [13]) and in experiment [8] (setting [15]) was 0 in each case.

With `Cn1ccc(C2CNC(=O)C2C(=O)Nc2cccc(F)c2F)n1` (racemic) [Compound 192], the “Plant response rating, Wheat” value in experiment [1] (setting [13]) and in experiment [1] (setting [15]) was 0 each time. Further, the “Plant response rating, Velvetleaf” value in experiment [2] (setting [13]) and in experiment [2] (setting [15]) was 0 throughout. Further, the “Plant response rating, Barnyardgrass” value in experiment [3] (setting [13]) and in experiment [3] (setting [16]) was 0 in each case. Also, the “Plant response rating, Foxtail, Giant” value in experiment [4] (setting [13]) and in experiment [4] (setting [15]) was 0 each time. For the same compound, the “Plant response rating, Pigweed” value in experiment [5] (setting [13]) and in experiment [5] (setting [15]) was 0 each time. In addition, the “Plant response rating, Morningglory” value in experiment [6] (setting [13]) and in experiment [6] (setting [15]) was 0 in each case. The “Plant response rating, Corn” value in experiment [7] (setting [13]) and in experiment [7] (setting [15]) was 0 each time. The “Plant response rating, Crabgrass, Large” value in experiment [8] (setting [13]) and in experiment [8] (setting [15]) was 0 each time.

Regarding `Cn1cc(C2CNC(=O)C2C(=O)Nc2cccc(F)c2F)cn1` (racemic) [Compound 253], the “Plant response rating, Wheat” value in experiment [1] (setting [13]) and in experiment [1] (setting [15]) was 0 each time. For the same compound, the “Plant response rating, Velvetleaf” value in experiment [2] (setting [13]) and in experiment [2] (setting [15]) was 0 each time. For the same compound, the “Plant response rating, Barnyardgrass” value in experiment [3] (setting [13]) and in experiment [3] (setting [16]) was 0 each time. The “Plant response rating, Foxtail, Giant” value in experiment [4] (setting [13]) is recorded as 20; in experiment [4] (setting [15]) it was 0. Besides, the “Plant response rating, Pigweed” value in experiment [5] (setting [13]) and in experiment [5] (setting [15]) was 0 in each case. Also, the “Plant response rating, Morningglory” value in experiment [6] (setting [13]) is 10; in experiment [6] (setting [15]), 0. Besides, the “Plant response rating, Corn” value in experiment [7] (setting [13]) and in experiment [7] (setting [15]) was 0 throughout. Also, the “Plant response rating, Crabgrass, Large” value in experiment [8] (setting [13]) was found to be 20; in experiment [8] (setting [15]), 0.

Consider `Cn1cc(C2CNC(=O)C2C(=O)Nc2ccccc2F)cn1` (racemic) [Compound 254], for which the “Plant response rating, Wheat” value in experiment [1] (setting [13]) and in experiment [1] (setting [15]) was 0 in each case. Also, the “Plant response rating, Velvetleaf” value in experiment [2] (setting [13]) and in experiment [2] (setting [15]) was 0 each time. Also, the “Plant response rating, Barnyardgrass” value in experiment [3] (setting [13]) and in experiment [3] (setting [16]) was 0 throughout. The figures for the “Plant response rating, Foxtail, Giant” value in experiment [4] (setting [13]) and in experiment [4] (setting [15]) were 0 and 40, respectively. Moreover, the “Plant response rating, Pigweed” value in experiment [5] (setting [13]) and in experiment [5] (setting [15]) was 0 in each case. The “Plant response rating, Morningglory” value in experiment [6] (setting [13]) and in experiment [6] (setting [15]) was 0 throughout. Also, the “Plant response rating, Corn” value in experiment [7] (setting [13]) and in experiment [7] (setting [15]) was 0 throughout. For the same compound, the “Plant response rating, Crabgrass, Large” value in experiment [8] (setting [13]) is recorded as 0; in experiment [8] (setting [15]), 70.

For the compound `Cn1ccnc1C1CNC(=O)C1C(=O)Nc1ccccc1F` (racemic) [Compound 255], the “Plant response rating, Wheat” value in experiment [1] (setting [13]) and in experiment [1] (setting [15]) was 0 in each case. Moreover, the “Plant response rating, Velvetleaf” value in experiment [2] (setting [13]) and in experiment [2] (setting [15]) was 0 in each case. The “Plant response rating, Barnyardgrass” value in experiment [3] (setting [13]) is recorded as 0; in experiment [3] (setting [16]), 60. Besides, the “Plant response rating, Foxtail, Giant” value in experiment [4] (setting [13]) was determined as 0; in experiment [4] (setting [15]), 70. Moreover, the “Plant response rating, Pigweed” value in experiment [5] (setting [13]) and in experiment [5] (setting [15]) was 0 throughout. The “Plant response rating, Morningglory” value in experiment [6] (setting [13]) and in experiment [6] (setting [15]) was 0 in each case. For the same compound, the “Plant response rating, Corn” value in experiment [7] (setting [13]) and in experiment [7] (setting [15]) was 0 throughout. In addition, the “Plant response rating, Crabgrass, Large” value came out at 0 in experiment [8] (setting [13]) and 90 in experiment [8] (setting [15]).

For the compound `O=C1NCC(c2ccc(F)c(F)c2)C1C(=O)N(O)c1ccccc1` (stereo not shown) [Compound 71], the “Plant response rating, Wheat” value in experiment [1] (setting [13]) and in experiment [1] (setting [14]) was 0 each time. The “Plant response rating, Velvetleaf” value in experiment [2] (setting [13]) and in experiment [2] (setting [14]) was 0 in each case. Also, the “Plant response rating, Barnyardgrass” value in experiment [3] (setting [13]) and in experiment [3] (setting [14]) was 50 throughout. Further, the “Plant response rating, Foxtail, Giant” value in experiment [4] (setting [13]) and in experiment [4] (setting [14]) was 60 in each case. Moreover, the “Plant response rating, Pigweed” value in experiment [5] (setting [13]) and in experiment [5] (setting [14]) was 0 throughout. Besides, the “Plant response rating, Corn” value in experiment [7] (setting [13]) and in experiment [7] (setting [14]) was 0 throughout. Moreover, the “Plant response rating, Crabgrass, Large” value in experiment [8] (setting [13]) and in experiment [8] (setting [14]) was 80 each time.
